{"source": "patent US10010608B2", "about": "“Combination therapies for cancer” (MERCK SHARP & DOHME CORP., priority 2013, dated 2018)", "test_system": "CT-26 murine colorectal adenocarcinoma cell line", "experiment": "Anti-tumor response of CT-26 tumor-bearing BALB/c mice (syngeneic model)", "type": "in vivo, mouse", "from_the_text": "This experiment compared the anti-tumor response of tumor-bearing mice to treatment with one of three regimens: (i) monotherapy with a murine anti-mouse PD-1 monoclonal antibody of murine isotype IgG1 (Anti-PD1); (ii) monotherapy with trametinib and (iii) combination therapy with anti-PD1 and trametinib administered concurrently. Murine isotype IgG1 is the murine counterpart isotype to human isotype IgG4.\nWhile human tumor cells or tumor explants can be grown in immunodeficient animals as xenografts, they cannot be used for testing immunotherapeutics because of the lack of a functional immune system. For a meaningful evaluation of immunotherapeutics or combination of immunotherapeutics with other agents, it is necessary to use a syngeneic model in which syngeneic tumors are grown in animals with an intact immune system. CT-26 is a murine colorectal adenocarcinoma cell line syngeneic to the BALB/c mouse strain. CT-26 carries a KRAS mutation that activates the mitogen-activating protein kinase pathway, which makes it a relevant model to evaluate sensitivity to trametinib (an inhibitor of mitogen-activated protein kinase kinase). This is also a relevant model system for evaluating the mechanism of action for an anti-PD-1 antibody because of the translatable molecular profile of this tumor post-anti-PD-1 therapy. […]"}
{"smiles": "CC(=O)Nc1cccc(-n2c(=O)n(C3CC3)c(=O)c3c(Nc4ccc(I)cc4F)n(C)c(=O)c(C)c32)c1", "note": "[trametinib, N-{3-[3-cyclopropyl-5-(2-fluoro-4-iodo-phenylamino)6,8-dimethyl-2,4,7-trioxo-3,4,6,7-tetrahydro-2H-pyrido[4,3-d]pyrimidin-1-yl]phenyl}acetamide]", "values": [{"measurement": "effect of trametinib on the anti-tumor effects of Anti-PD1", "setting": "combination treatment arm", "result": "did not appear to antagonize"}, {"measurement": "animals with complete regression (CR)", "setting": "end of the 23 day treatment period, 12 mice per group", "result": "no CRs"}]}
